Experimental data taken from US4053466A, “(E)-2-[p-(β-substituted-vinyl)phenyl]alkanoic acids” (Kohjin Co., Ltd., priority 1974, dated 1977).

Key:
[1] = tested on: rabbit platelet-rich plasma; assay: inhibition of collagen-induced platelet aggregation; format: cell-based; settings: 10^-4 M, 0.02N NaOH, 3 minute incubation
Protocol: The activity was evaluated after a 3 minute incubation of a mixture of the platelet aggregation inhibitor and rabbit platelet-rich plasma. […] Accordingly,the relative potency of inhibition of the test compound to aspirin (RASP) at the same concentration was chosen as a direct measure of inhibition potency.

[2] = Farmaco. Edizione Scientifica, 11, 167 (1956); cited from earlier work
[3] = tested on: phenylquinone-induced writhing; assay: analgesic activity, Phenylquinone-Writhing Syndrome method; format: in vivo, mouse (ddN strain); settings: for number of positive mice: fewer writhings than half of control; for ED50: Mus musculus, po, phenylquinone writhing, positive = fewer writhings than half of control
Protocol: Analgesic activity was determined according to the Phenylquinone-Writhing Syndrome method. ddN strain mice, each weighing about 18 to 22 g were used. Chemical pain was induced by an intraperitoneal injection of 0.1 ml/10 g body weight of 0.03% phenylquinone in 5% aqueous ethanol into the mice. The number of writhings was measured for 15 minutes from 5 minutes after challenge of phenylquinone. Each dose of the drug was given 30 minutes before challenge of phenylquinone.
Ed50 -value was calculated from the number of positive animals showing fewer writhings than half of the matched control group.

[4] = tested on: carrageenin-induced hind paw edema; assay: anti-inflammatory activity, carrageenin-induced hind paw edema; format: in vivo, rat (male Wistar); settings: for number of positive rats: inhibition of 25% or more vs control at 3 hours; for ED50: Rattus norvegicus, po, carrageenin edema, positive = inhibition of 25% or more at 3 hours
Protocol: The anti-inflammatory activity of the compounds against carrageenin-inducededema was determined according to procedure described in C. A. Winter et al., Proc. Soc. Exp. Biol. Med., 111, 544 (1962). Male Wistar rats, each weighing 100 to 120 g were used. Hind paw edema was induced by sub-cutaneous injection of 0.1 ml of 1% carrageenin solution into the left foot pad of each rat. Hind paw volume was measured before and after challenge of carrageenin by immersion of the hind paw down to the lateral malleolus into a glass cylinder containing water. Each dose of the test compound was orally administered one hour before challenge of carrageenin.
ED50 -value was calculated from the number of positive animals showing an inhibitory activity of 25% or more than the matched control group at 3 hours after carrageenin challenge.

## CC(C)Cc1ccc(CC(=O)O)cc1 [p-Isobutylphenylacetic acid, reference compound]
[1]
  RASP (relative potency of inhibition of the test compound to aspirin): 0.5

## O=C(O)Cc1ccc(/C=C/c2cccs2)cc1 [Example 4, (E)-p-(β-2-Thienylvinyl)phenylacetic Acid]
[1]
  RASP (relative potency of inhibition of the test compound to aspirin): 1.0

## O=C(O)Cc1ccc(C=Cc2ccccc2)cc1 [4-stilbene-acetic acid]
[2]
  anti-cholesterinemic activity: anti-cholesterinemic activity

## CC(C(=O)O)c1ccc(/C=C/c2cccs2)cc1 (stereo not drawn) [XG-28, (E)-2-[p-(β-2-Thienylvinyl)phenyl]propionic Acid]
[3]; 0.5 mg/kg p.o.
  Inhibition in (%) of writhing: 13.5%
  Number of Writhings/15 min., Mean ± S.E.: 16.8 ± 2.1
  number of positive mice: 1
[3]; 5 mg/kg p.o.
  Inhibition in (%) of writhing: 25.8%
  Number of Writhings/15 min., Mean ± S.E.: 14.4 ± 6.0
  number of positive mice: 2
[3]; 10 mg/kg p.o.
  Inhibition in (%) of writhing: 29.4%
  Number of Writhings/15 min., Mean ± S.E.: 13.7 ± 2.4
  number of positive mice: 2
[3]; 25 mg/kg p.o.
  Inhibition in (%) of writhing: 71.1%
  Number of Writhings/15 min., Mean ± S.E.: 5.6 ± 1.8
  number of positive mice: 7
[3]; 50 mg/kg p.o.
  Inhibition in (%) of writhing: 52.1%
  Number of Writhings/15 min., Mean ± S.E.: 9.3 ± 1.6
  number of positive mice: 4
[3]; 100 mg/kg p.o.
  Inhibition in (%) of writhing: 63.9%
  Number of Writhings/15 min., Mean ± S.E.: 7.0 ± 2.0
  number of positive mice: 9
[3]; 200 mg/kg p.o.
  Inhibition in (%) of writhing: 60.3%
  Number of Writhings/15 min., Mean ± S.E.: 7.7 ± 1.2
  number of positive mice: 5
[3]
  ED50: 14.1 mg/kg
[4]; 1 mg/kg p.o., 2 hours
  Hind Paw Swelling, Mean ± S.E.: 73.7 ± 3.7%
  Percent Inhibition of hind paw swelling: 2.4%
[4]; 1 mg/kg p.o., 3 hours
  Hind Paw Swelling, Mean ± S.E.: 73.9 ± 2.6%
  Percent Inhibition of hind paw swelling: -1.0%
[4]; 1 mg/kg p.o.
  number of positive rats: 0
[4]; 2.5 mg/kg p.o., 2 hours
  Hind Paw Swelling, Mean ± S.E.: 67.0 ± 2.6%
  Percent Inhibition of hind paw swelling: 11.3%
[4]; 2.5 mg/kg p.o., 3 hours
  Hind Paw Swelling, Mean ± S.E.: 70.12 ± 2.1%
  Percent Inhibition of hind paw swelling: 4.0%
[4]; 2.5 mg/kg p.o.
  number of positive rats: 0
[4]; 5 mg/kg p.o., 2 hours
  Hind Paw Swelling, Mean ± S.E.: 62.9 ± 3.2%
  Percent Inhibition of hind paw swelling: 16.8%
[4]; 5 mg/kg p.o., 3 hours
  Hind Paw Swelling, Mean ± S.E.: 68.2 ± 2.7%
  Percent Inhibition of hind paw swelling: 6.7%
[4]; 5 mg/kg p.o.
  number of positive rats: 1
[4]; 10 mg/kg p.o., 2 hours
  Hind Paw Swelling, Mean ± S.E.: 60.5 ± 2.3%
  Percent Inhibition of hind paw swelling: 19.8%
[4]; 10 mg/kg p.o., 3 hours
  Hind Paw Swelling, Mean ± S.E.: 65.7 ± 2.0%
  Percent Inhibition of hind paw swelling: 10.1%
[4]; 10 mg/kg p.o.
  number of positive rats: 0
[4]; 20 mg/kg p.o., 2 hours
  Hind Paw Swelling, Mean ± S.E.: 50.7 ± 3.7%
  Percent Inhibition of hind paw swelling: 33.6%
[4]; 20 mg/kg p.o., 3 hours
  Hind Paw Swelling, Mean ± S.E.: 56.0 ± 4.1%
  Percent Inhibition of hind paw swelling: 25.2%
[4]; 20 mg/kg p.o.
  number of positive rats: 6
[4]; 40 mg/kg p.o., 2 hours
  Hind Paw Swelling, Mean ± S.E.: 46.8 ± 2.6%
  Percent Inhibition of hind paw swelling: 38.7%
[4]; 40 mg/kg p.o., 3 hours
  Hind Paw Swelling, Mean ± S.E.: 48.6 ± 3.1%
  Percent Inhibition of hind paw swelling: 35.1%
[4]; 40 mg/kg p.o.
  number of positive rats: 8
[4]; 80 mg/kg p.o., 2 hours
  Hind Paw Swelling, Mean ± S.E.: 49.8 ± 2.6%
  Percent Inhibition of hind paw swelling: 31.3%
[4]; 80 mg/kg p.o., 3 hours
  Hind Paw Swelling, Mean ± S.E.: 49.3± 2.8%
  Percent Inhibition of hind paw swelling: 30.9%
[4]; 80 mg/kg p.o.
  number of positive rats: 7
[4]
  ED50: 23.3 mg/kg
[1]
  RASP (relative potency of inhibition of the test compound to aspirin): 1.6

## CC(C)Cc1ccc(C(C)C(=O)O)cc1 (stereo not shown) [Ibuprofen, 2-(p-isobutylphenyl)propionic acid, reference compound]
[3]; 25 mg/kg p.o.
  Inhibition in (%) of writhing: 25.5%
  Number of Writhings/15 min., Mean ± S.E.: 27.4 ± 3.3
  number of positive mice: 2
[3]; 50 mg/kg p.o.
  Inhibition in (%) of writhing: 45.7%
  Number of Writhings/15 min., Mean ± S.E.: 20.0 ± 1.5
  number of positive mice: 4
[3]; 100 mg/kg p.o.
  Inhibition in (%) of writhing: 64.4%
  Number of Writhings/15 min., Mean ± S.E.: 13.1 ± 1.9
  number of positive mice: 8
[3]; 200 mg/kg p.o.
  Inhibition in (%) of writhing: 76.4%
  Number of Writhings/15 min., Mean ± S.E.: 8.7 ± 1.6
  number of positive mice: 10
[3]; 400 mg/kg p.o.
  Inhibition in (%) of writhing: 94.8%
  Number of Writhings/15 min., Mean ± S.E.: 1.9 ± 0.8
  number of positive mice: 10
[3]
  ED50: 50 mg/kg
[4]; 10 mg/kg p.o., 2 hours
  Hind Paw Swelling, Mean ± S.E.: 57.4 ± 3.9%
  Percent Inhibition of hind paw swelling: 13.6%
[4]; 10 mg/kg p.o., 3 hours
  Hind Paw Swelling, Mean ± S.E.: 60.8 ± 4.7%
  Percent Inhibition of hind paw swelling: 15.5%
[4]; 10 mg/kg p.o.
  number of positive rats: 1
[4]; 20 mg/kg p.o., 2 hours
  Hind Paw Swelling, Mean ± S.E.: 52.6 ± 3.4%
  Percent Inhibition of hind paw swelling: 20.9%
[4]; 20 mg/kg p.o., 3 hours
  Hind Paw Swelling, Mean ± S.E.: 56.2 ± 2.7%
  Percent Inhibition of hind paw swelling: 21.9%
[4]; 20 mg/kg p.o.
  number of positive rats: 4
[4]; 40 mg/kg p.o., 2 hours
  Hind Paw Swelling, Mean ± S.E.: 47.5 ± 4.0%
  Percent Inhibition of hind paw swelling: 28.6%
[4]; 40 mg/kg p.o., 3 hours
  Hind Paw Swelling, Mean ± S.E.: 51.2 ± 4.0%
  Percent Inhibition of hind paw swelling: 28.9%
[4]; 40 mg/kg p.o.
  number of positive rats: 7
[4]; 80 mg/kg p.o., 2 hours
  Hind Paw Swelling, Mean ± S.E.: 41.8 ± 2.3%
  Percent Inhibition of hind paw swelling: 37.2%
[4]; 80 mg/kg p.o., 3 hours
  Hind Paw Swelling, Mean ± S.E.: 43.9 ± 2.4%
  Percent Inhibition of hind paw swelling: 38.9%
[4]; 80 mg/kg p.o.
  number of positive rats: 9
[4]
  ED50: 24.3 mg/kg
[1]
  RASP (relative potency of inhibition of the test compound to aspirin): 0.6
